Data taken from PubChem BioAssay (NCI).
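In this assay, cells in 96-well plates receive the compound at five concentrations for 48 hours. Endpoints are linearly interpolated between the surrounding concentrations. TGI marks complete inhibition of growth.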

Legend:
Experiment in all cases: NCI tumour cell line growth inhibition, 48 h
OVCAR-3 ovarian = tested on: OVCAR-3 ovarian
SN12C renal = tested on: SN12C renal
MALME-3M melanoma = tested on: MALME-3M melanoma
MDA-N = tested on: MDA-N
A549 NSCLC = tested on: A549 NSCLC
UO-31 renal = tested on: UO-31 renal
RPMI-8226 leukemia = tested on: RPMI-8226 leukemia
NCI-H23 lung = tested on: NCI-H23 lung
SK-MEL-28 melanoma = tested on: SK-MEL-28 melanoma
BT-549 breast = tested on: BT-549 breast
TK-10 renal = tested on: TK-10 renal
HCT-15 colon = tested on: HCT-15 colon
MCF7 breast = tested on: MCF7 breast
CCRF-CEM leukemia = tested on: CCRF-CEM leukemia
U251 CNS = tested on: U251 CNS
SF-268 CNS = tested on: SF-268 CNS
K-562 leukemia = tested on: K-562 leukemia
T-47D breast = tested on: T-47D breast
UACC-62 melanoma = tested on: UACC-62 melanoma
SK-MEL-5 melanoma = tested on: SK-MEL-5 melanoma

Compound | TGI (OVCAR-3 ovarian) | TGI (SN12C renal) | TGI (MALME-3M melanoma) | TGI (MDA-N) | TGI (A549 NSCLC) | TGI (UO-31 renal) | TGI (RPMI-8226 leukemia) | TGI (NCI-H23 lung) | TGI (SK-MEL-28 melanoma) | TGI (BT-549 breast) | TGI (TK-10 renal) | TGI (HCT-15 colon) | TGI (MCF7 breast) | TGI (CCRF-CEM leukemia) | TGI (U251 CNS) | TGI (SF-268 CNS) | TGI (K-562 leukemia) | TGI (T-47D breast) | TGI (UACC-62 melanoma) | TGI (SK-MEL-5 melanoma)
Cc1sc2[nH]c(=O)oc(=O)c2c1C | > 100 µM | > 100 µM | > 100 µM | > 100 µM | > 100 µM | > 83.3 µM | > 100 µM | > 100 µM | > 100 µM | > 86.6 µM | > 100 µM | > 100 µM | > 78.9 µM | > 100 µM | > 100 µM | > 100 µM | > 100 µM | > 100 µM | > 100 µM | > 100 µM
O=c1ccn(CC2(CO)CCCC2)c(=O)[nH]1 | > 100 µM | > 100 µM | > 100 µM | > 100 µM | > 100 µM | > 100 µM | > 100 µM | > 100 µM | > 100 µM | > 100 µM | > 100 µM | > 100 µM | > 100 µM | > 100 µM | > 100 µM | > 100 µM | > 100 µM | > 100 µM | > 100 µM | > 100 µM
CN(C)CCCC1c2ccccc2Oc2ccc(C(F)(F)F)cc21 (configuration not stated) | 29.2 µM | 28.2 µM | 15.8 µM | 15.2 µM | 29.8 µM | 6.49 µM | 25.3 µM | 36.6 µM | 15.7 µM | 28.2 µM | 29.3 µM | 31.5 µM | 26.6 µM | 31.5 µM | 23.9 µM | 28.5 µM | 18.3 µM | 30.5 µM | 23.4 µM | 21 µM
C[Si](C)(C)C#Cc1cc(-c2nc3ccccc3s2)ccc1N | 39.2 µM | 30.1 µM | 23.7 µM | 33.7 µM | 40.7 µM | 26.4 µM | 48.3 µM | 40.6 µM |  | 33.1 µM | 26.2 µM | 32.1 µM | 12 µM | 59.4 µM | 37.9 µM | 32.1 µM | 70.6 µM | > 100 µM | 33.2 µM | 29.4 µM
Cc1c2ccnc(C(=O)NCCN(C)C)c2cc2c3cc(O)ccc3n(C)c12 | 2.77 µM | 2.15 µM | 2.06 µM | 1.93 µM | 7.26 µM | 4.11 µM | 1.14 µM | 1.7 µM | 2.14 µM | 10.7 µM | 9.05 µM | 4.39 µM | 5.75 µM | 0.24 µM | 2.43 µM | 2.28 µM | 2.4 µM | 2.83 µM | 1.01 µM | 1.45 µM
C=CCNC(=S)N=Nc1c(O)n(CN2CCOCC2)c2ccc([N+](=O)[O-])cc12 | > 100 µM | > 100 µM | > 100 µM | > 100 µM | > 100 µM | > 100 µM | > 100 µM | > 100 µM | > 100 µM | > 100 µM | 93.1 µM | > 100 µM | > 100 µM | > 100 µM | > 100 µM | > 100 µM | > 100 µM | 95.1 µM | > 100 µM | 84.6 µM
c1ccc2c(CN3CCN(Cc4c[nH]c5ccccc45)CC3)c[nH]c2c1 | 35.6 µM | 41.9 µM | 29.5 µM | 29.1 µM |  | 27.7 µM | 53.2 µM | 42.7 µM | 36.9 µM | 58.6 µM | 29.1 µM | 44.4 µM | 36.9 µM | > 100 µM | 29.3 µM | 36 µM | 39.7 µM | 39.1 µM | 29.9 µM | 29.1 µM
CCN(CC)CCC(=O)c1ccc(Sc2ccc(F)cc2)cc1 | 40.9 µM | 46.8 µM | 33.4 µM | 49 µM | > 100 µM | 31.9 µM | 9.74 µM | 33.9 µM | 34.3 µM | 31.6 µM | 27.9 µM | 33.4 µM | 31 µM | 34 µM | 31.1 µM | 35.1 µM | > 100 µM | 42.9 µM | 31.1 µM | 34.5 µM
COC(=O)/C(=N\NC(N)=O)C(C(=O)C(=O)Nc1ccccc1OC)c1nc2ccc([N+](=O)[O-])cc2[nH]c1=O (configuration not stated) | > 100 µM | > 100 µM | > 100 µM | > 100 µM | > 100 µM | > 100 µM | > 100 µM | > 100 µM | > 100 µM | > 100 µM | > 100 µM | > 100 µM | > 100 µM | > 100 µM | > 100 µM | > 100 µM | > 100 µM | > 100 µM | > 100 µM | > 100 µM
S=C(NNC1=NCCCCN1)Nc1ccc(Cl)cc1 | > 100 µM |  | 55.7 µM | > 100 µM | > 100 µM | 31.6 µM | > 100 µM | > 100 µM | > 100 µM | > 100 µM | > 100 µM | > 100 µM | > 100 µM | > 100 µM | > 100 µM | > 100 µM | > 100 µM | > 100 µM | 18.9 µM | 20.5 µM
COc1ccc(OC)c(CSc2ccc(OC)c(OC)c2)c1 | > 100 µM | > 100 µM | > 100 µM | > 100 µM | > 100 µM | > 100 µM | > 100 µM | > 100 µM | > 100 µM | > 100 µM | > 100 µM | > 100 µM | > 100 µM | > 100 µM | > 100 µM | > 100 µM | > 100 µM | > 30.5 µM | > 100 µM | > 100 µM
COc1cc(=O)c2c(O)c3c(O)oc(C)cc3c(OC)c2c1 | 59.1 µM | 55.8 µM | 47 µM | 80.6 µM | 87.7 µM | > 100 µM | 46.4 µM | 69.8 µM | 60 µM | > 100 µM | 64.9 µM | 86.8 µM | > 100 µM | 52.6 µM | > 100 µM | > 100 µM | 51.7 µM | 90.8 µM | 52.9 µM | 64.5 µM
